# Laboratory results reported in ChEMBL document CHEMBL1142279, “Optimization of 2,3,5-trisubstituted pyridine derivatives as potent allosteric Akt1 and Akt2 inhibitors” (Bioorg Med Chem Lett, 2008).
# Test system: not listed separately
# Test: Inhibition of PKA
# Details: not given
row,IC50 [µM],Compound
1,> 10,Nc1nnc(-c2cnc(-c3ccc(CN4CCC(n5ncc6c(N)ncnc65)CC4)cc3)c(-c3ccccc3)c2)s1

# Molecular target: RAC-alpha serine/threonine-protein kinase (Homo sapiens) (UniProt P31749)
# Test: Inhibition of human recombinant Akt1
# Details: not given
# Chain of RAC-alpha serine/threonine-protein kinase (Homo sapiens) (P31749 whole entry): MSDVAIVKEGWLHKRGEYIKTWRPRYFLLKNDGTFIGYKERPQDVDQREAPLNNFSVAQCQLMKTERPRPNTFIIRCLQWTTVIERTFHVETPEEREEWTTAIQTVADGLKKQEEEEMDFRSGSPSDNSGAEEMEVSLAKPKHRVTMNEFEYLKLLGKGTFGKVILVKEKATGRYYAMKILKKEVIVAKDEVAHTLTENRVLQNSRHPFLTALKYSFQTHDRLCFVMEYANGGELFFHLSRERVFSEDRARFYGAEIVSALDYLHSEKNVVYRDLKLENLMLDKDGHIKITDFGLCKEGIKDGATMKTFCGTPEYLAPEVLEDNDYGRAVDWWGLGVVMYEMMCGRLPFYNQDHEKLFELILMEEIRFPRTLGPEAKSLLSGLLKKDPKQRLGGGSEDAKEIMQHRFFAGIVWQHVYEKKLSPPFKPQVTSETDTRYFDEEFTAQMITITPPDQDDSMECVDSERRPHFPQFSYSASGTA
row,Activity [nM],Compound
1,434,Nc1nnc(-c2cnc(-c3ccc(CN4CCC(n5c(=O)[nH]c6ncccc65)CC4)cc3)c(-c3ccccc3)c2)s1
2,180,Nc1ncnc2c1cnn2C1CCN(Cc2ccc(-c3ncc(-c4ncon4)cc3-c3ccccc3)cc2)CC1
3,214,Nc1nnc(-c2cnc(-c3ccc(CN4CCC(n5cc(-c6ccccn6)cn5)CC4)cc3)c(-c3ccccc3)c2)s1
4,264,Nc1ncnc2c1cnn2C1CCN(Cc2ccc(-c3ncc(-c4nccs4)cc3-c3ccccc3)cc2)CC1
5,1630,Nc1ncnc2c1cnn2C1CCN(Cc2ccc(-c3ncc(-c4ccccn4)cc3-c3ccccc3)cc2)CC1
6,306,Nc1ncnc2c1cnn2C1CCN(Cc2ccc(-c3ncc(-c4ncccn4)cc3-c3ccccc3)cc2)CC1
7,210,Nc1ncnc2c1ncn2C1CCN(Cc2ccc(-c3ncc(-c4nnn[nH]4)cc3-c3ccccc3)cc2)CC1
8,123,Nc1nnc(-c2cnc(-c3ccc(CN4CCC(c5cc(-c6ccncc6)[nH]n5)CC4)cc3)c(-c3ccccc3)c2)s1
9,182,Nc1ncnc2c1cnn2C1CCN(Cc2ccc(-c3ncc(-c4nc[nH]n4)cc3-c3ccccc3)cc2)CC1
10,172,Nc1nnc(-c2cnc(-c3ccc(CN4CCC(n5cc(-c6cnccn6)cn5)CC4)cc3)c(-c3ccccc3)c2)s1
11,85,Nc1nnc(-c2cnc(-c3ccc(CN4CCC(c5n[nH]c(-c6ccccn6)n5)CC4)cc3)c(-c3ccccc3)c2)s1
12,126,Nc1nnc(-c2cnc(-c3ccc(CN4CCC(n5ncc6c(N)ncnc65)CC4)cc3)c(-c3ccccc3)c2)s1
13,114,Nc1nnc(-c2cnc(-c3ccc(CNCCC(=O)c4ccccc4N)cc3)c(-c3ccccc3)c2)s1
14,95,Nc1nnc(-c2cnc(-c3ccc(CN4CCC(c5cc(-c6ccccn6)[nH]n5)CC4)cc3)c(-c3ccccc3)c2)s1

row,Compound,Activity [nM]
1,O=c1[nH]c2ccccc2n1C1CCN(Cc2ccc(-c3ncc(-c4nnn[nH]4)cc3-c3ccccc3)cc2)CC1,273
2,N#Cc1cnc(-c2ccc(CN3CCC(n4c(=O)[nH]c5ccccc54)CC3)cc2)c(-c2ccccc2)c1,762

# Molecular target: RAC-alpha serine/threonine-protein kinase (Homo sapiens) (UniProt P31749)
# Test: Inhibition of Akt1 in human C33a cells
# Format: cell-based
# Details: not given
row,Activity [nM],Compound
1,12600,Nc1nnc(-c2cnc(-c3ccc(CN4CCC(n5c(=O)[nH]c6ncccc65)CC4)cc3)c(-c3ccccc3)c2)s1
2,288,Nc1ncnc2c1cnn2C1CCN(Cc2ccc(-c3ncc(-c4ncon4)cc3-c3ccccc3)cc2)CC1
3,1350,Nc1nnc(-c2cnc(-c3ccc(CN4CCC(n5cc(-c6ccccn6)cn5)CC4)cc3)c(-c3ccccc3)c2)s1
4,1650,Nc1ncnc2c1cnn2C1CCN(Cc2ccc(-c3ncc(-c4nccs4)cc3-c3ccccc3)cc2)CC1
5,10000,Nc1ncnc2c1cnn2C1CCN(Cc2ccc(-c3ncc(-c4ccccn4)cc3-c3ccccc3)cc2)CC1
6,1950,Nc1ncnc2c1cnn2C1CCN(Cc2ccc(-c3ncc(-c4ncccn4)cc3-c3ccccc3)cc2)CC1
7,> 50000,Nc1ncnc2c1ncn2C1CCN(Cc2ccc(-c3ncc(-c4nnn[nH]4)cc3-c3ccccc3)cc2)CC1
8,407,Nc1nnc(-c2cnc(-c3ccc(CN4CCC(c5cc(-c6ccncc6)[nH]n5)CC4)cc3)c(-c3ccccc3)c2)s1
9,890,Nc1ncnc2c1cnn2C1CCN(Cc2ccc(-c3ncc(-c4nc[nH]n4)cc3-c3ccccc3)cc2)CC1
10,1380,Nc1nnc(-c2cnc(-c3ccc(CN4CCC(n5cc(-c6cnccn6)cn5)CC4)cc3)c(-c3ccccc3)c2)s1
11,516,Nc1nnc(-c2cnc(-c3ccc(CN4CCC(c5n[nH]c(-c6ccccn6)n5)CC4)cc3)c(-c3ccccc3)c2)s1
12,621,Nc1nnc(-c2cnc(-c3ccc(CN4CCC(n5ncc6c(N)ncnc65)CC4)cc3)c(-c3ccccc3)c2)s1
13,618,Nc1nnc(-c2cnc(-c3ccc(CNCCC(=O)c4ccccc4N)cc3)c(-c3ccccc3)c2)s1
14,734,Nc1nnc(-c2cnc(-c3ccc(CN4CCC(c5cc(-c6ccccn6)[nH]n5)CC4)cc3)c(-c3ccccc3)c2)s1

row,Compound,Activity [nM]
1,O=c1[nH]c2ccccc2n1C1CCN(Cc2ccc(-c3ncc(-c4nnn[nH]4)cc3-c3ccccc3)cc2)CC1,> 50000
2,N#Cc1cnc(-c2ccc(CN3CCC(n4c(=O)[nH]c5ccccc54)CC3)cc2)c(-c2ccccc2)c1,> 50000

# Test system: not listed separately
# Test: Inhibition of PKC
# Details: not given
row,IC50 [µM],Compound
1,> 10,Nc1nnc(-c2cnc(-c3ccc(CN4CCC(n5ncc6c(N)ncnc65)CC4)cc3)c(-c3ccccc3)c2)s1

# Molecular target: RAC-gamma serine/threonine-protein kinase (Homo sapiens) (UniProt Q9Y243)
# Sequence (Q9Y243 whole entry): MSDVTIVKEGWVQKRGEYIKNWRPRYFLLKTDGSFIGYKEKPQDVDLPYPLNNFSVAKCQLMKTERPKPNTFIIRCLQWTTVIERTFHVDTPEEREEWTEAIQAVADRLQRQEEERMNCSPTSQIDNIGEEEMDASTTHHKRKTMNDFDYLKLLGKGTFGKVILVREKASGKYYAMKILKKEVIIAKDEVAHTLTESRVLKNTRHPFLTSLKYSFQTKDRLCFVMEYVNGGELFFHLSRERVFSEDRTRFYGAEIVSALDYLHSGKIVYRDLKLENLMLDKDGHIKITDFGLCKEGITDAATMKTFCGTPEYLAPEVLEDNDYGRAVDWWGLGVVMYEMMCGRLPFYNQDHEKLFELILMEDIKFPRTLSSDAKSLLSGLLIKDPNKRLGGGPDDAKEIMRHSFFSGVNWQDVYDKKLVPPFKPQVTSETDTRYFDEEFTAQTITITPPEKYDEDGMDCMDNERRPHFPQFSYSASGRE
# Test: Inhibition of human recombinant Akt3
# Details: not given
row,Compound,Activity [µM]
1,O=c1[nH]c2ccccc2n1C1CCN(Cc2ccc(-c3ncc(-c4nnn[nH]4)cc3-c3ccccc3)cc2)CC1,> 50
2,Nc1ncnc2c1ncn2C1CCN(Cc2ccc(-c3ncc(-c4nnn[nH]4)cc3-c3ccccc3)cc2)CC1,> 50
3,N#Cc1cnc(-c2ccc(CN3CCC(n4c(=O)[nH]c5ccccc54)CC3)cc2)c(-c2ccccc2)c1,> 50

# Test system: not listed separately
# Test: Clearance in dog at 0.25 mg/kg, iv
# Format: ADME, organism-based, Canis lupus familiaris
# Design: dose 0.25 mg/kg, route intravenous
# Details: in vivo
row,clearance [mL/min/kg],Compound
1,1.37,Nc1nnc(-c2cnc(-c3ccc(CN4CCC(n5ncc6c(N)ncnc65)CC4)cc3)c(-c3ccccc3)c2)s1

# Test system: not listed separately
# Test: Volume of distribution at steady state in dog at 0.25 mg/kg, iv
# Format: ADME, organism-based, Canis lupus familiaris
# Design: dose 0.25 mg/kg, route intravenous
# Details: in vivo, read-out: Vdss
row,Vd [L/kg],Compound
1,0.41,Nc1nnc(-c2cnc(-c3ccc(CN4CCC(n5ncc6c(N)ncnc65)CC4)cc3)c(-c3ccccc3)c2)s1

# Test system: not listed separately
# Test: Inhibition of SGK
# Details: not given
row,IC50 [µM],Compound
1,> 50,Nc1nnc(-c2cnc(-c3ccc(CN4CCC(n5c(=O)[nH]c6ncccc65)CC4)cc3)c(-c3ccccc3)c2)s1
2,> 50,Nc1ncnc2c1cnn2C1CCN(Cc2ccc(-c3ncc(-c4ncon4)cc3-c3ccccc3)cc2)CC1
3,> 50,Nc1nnc(-c2cnc(-c3ccc(CN4CCC(n5cc(-c6ccccn6)cn5)CC4)cc3)c(-c3ccccc3)c2)s1
4,> 50,Nc1ncnc2c1cnn2C1CCN(Cc2ccc(-c3ncc(-c4nccs4)cc3-c3ccccc3)cc2)CC1
5,> 50,Nc1ncnc2c1cnn2C1CCN(Cc2ccc(-c3ncc(-c4ncccn4)cc3-c3ccccc3)cc2)CC1
6,> 50,Nc1nnc(-c2cnc(-c3ccc(CN4CCC(c5cc(-c6ccncc6)[nH]n5)CC4)cc3)c(-c3ccccc3)c2)s1
7,> 50,Nc1ncnc2c1cnn2C1CCN(Cc2ccc(-c3ncc(-c4nc[nH]n4)cc3-c3ccccc3)cc2)CC1
8,> 50,Nc1nnc(-c2cnc(-c3ccc(CN4CCC(n5cc(-c6cnccn6)cn5)CC4)cc3)c(-c3ccccc3)c2)s1
9,> 50,Nc1nnc(-c2cnc(-c3ccc(CN4CCC(c5n[nH]c(-c6ccccn6)n5)CC4)cc3)c(-c3ccccc3)c2)s1
10,> 50,Nc1nnc(-c2cnc(-c3ccc(CN4CCC(n5ncc6c(N)ncnc65)CC4)cc3)c(-c3ccccc3)c2)s1
11,> 50,Nc1nnc(-c2cnc(-c3ccc(CN4CCC(c5cc(-c6ccccn6)[nH]n5)CC4)cc3)c(-c3ccccc3)c2)s1

# Molecular target: Protein kinase C alpha type (Homo sapiens) (UniProt P17252)
# Test: Inhibition of PKCalpha
# Details: not given
row,IC50 [µM],Compound
1,> 10,Nc1nnc(-c2cnc(-c3ccc(CN4CCC(n5ncc6c(N)ncnc65)CC4)cc3)c(-c3ccccc3)c2)s1

# Test system: not listed separately
# Test: Half life in dog at 0.25 mg/kg, iv
# Format: ADME, organism-based, Canis lupus familiaris
# Design: dose 0.25 mg/kg, route intravenous
# Details: in vivo
row,half-life [h],Compound
1,3.62,Nc1nnc(-c2cnc(-c3ccc(CN4CCC(n5ncc6c(N)ncnc65)CC4)cc3)c(-c3ccccc3)c2)s1

# Molecular target: RAC-beta serine/threonine-protein kinase (Homo sapiens) (UniProt P31751)
# Sequence (P31751 whole entry): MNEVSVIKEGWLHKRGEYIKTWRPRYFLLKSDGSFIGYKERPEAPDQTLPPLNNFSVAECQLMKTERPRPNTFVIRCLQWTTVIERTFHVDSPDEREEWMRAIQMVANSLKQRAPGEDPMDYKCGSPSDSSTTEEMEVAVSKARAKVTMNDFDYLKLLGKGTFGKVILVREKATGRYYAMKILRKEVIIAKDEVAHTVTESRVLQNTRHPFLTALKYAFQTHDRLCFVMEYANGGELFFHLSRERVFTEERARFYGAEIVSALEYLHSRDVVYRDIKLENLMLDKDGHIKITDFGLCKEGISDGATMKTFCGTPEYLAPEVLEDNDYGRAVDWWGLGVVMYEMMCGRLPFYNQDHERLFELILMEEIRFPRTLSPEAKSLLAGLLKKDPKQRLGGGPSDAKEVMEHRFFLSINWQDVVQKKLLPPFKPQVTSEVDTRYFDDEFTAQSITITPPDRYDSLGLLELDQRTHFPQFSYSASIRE
# Test: Inhibition of human recombinant Akt2
# Details: not given
row,Activity [nM],Compound
1,73,Nc1nnc(-c2cnc(-c3ccc(CN4CCC(n5c(=O)[nH]c6ncccc65)CC4)cc3)c(-c3ccccc3)c2)s1
2,121,Nc1ncnc2c1cnn2C1CCN(Cc2ccc(-c3ncc(-c4ncon4)cc3-c3ccccc3)cc2)CC1
3,90,Nc1nnc(-c2cnc(-c3ccc(CN4CCC(n5cc(-c6ccccn6)cn5)CC4)cc3)c(-c3ccccc3)c2)s1
4,64,Nc1ncnc2c1cnn2C1CCN(Cc2ccc(-c3ncc(-c4nccs4)cc3-c3ccccc3)cc2)CC1
5,370,Nc1ncnc2c1cnn2C1CCN(Cc2ccc(-c3ncc(-c4ccccn4)cc3-c3ccccc3)cc2)CC1
6,62,Nc1ncnc2c1cnn2C1CCN(Cc2ccc(-c3ncc(-c4ncccn4)cc3-c3ccccc3)cc2)CC1
7,105,Nc1ncnc2c1ncn2C1CCN(Cc2ccc(-c3ncc(-c4nnn[nH]4)cc3-c3ccccc3)cc2)CC1
8,38,Nc1nnc(-c2cnc(-c3ccc(CN4CCC(c5cc(-c6ccncc6)[nH]n5)CC4)cc3)c(-c3ccccc3)c2)s1
9,101,Nc1ncnc2c1cnn2C1CCN(Cc2ccc(-c3ncc(-c4nc[nH]n4)cc3-c3ccccc3)cc2)CC1
10,51,Nc1nnc(-c2cnc(-c3ccc(CN4CCC(n5cc(-c6cnccn6)cn5)CC4)cc3)c(-c3ccccc3)c2)s1
11,22,Nc1nnc(-c2cnc(-c3ccc(CN4CCC(c5n[nH]c(-c6ccccn6)n5)CC4)cc3)c(-c3ccccc3)c2)s1
12,22,Nc1nnc(-c2cnc(-c3ccc(CN4CCC(n5ncc6c(N)ncnc65)CC4)cc3)c(-c3ccccc3)c2)s1
13,30,Nc1nnc(-c2cnc(-c3ccc(CNCCC(=O)c4ccccc4N)cc3)c(-c3ccccc3)c2)s1
14,28,Nc1nnc(-c2cnc(-c3ccc(CN4CCC(c5cc(-c6ccccn6)[nH]n5)CC4)cc3)c(-c3ccccc3)c2)s1

row,Compound,Activity [nM]
1,O=c1[nH]c2ccccc2n1C1CCN(Cc2ccc(-c3ncc(-c4nnn[nH]4)cc3-c3ccccc3)cc2)CC1,150
2,N#Cc1cnc(-c2ccc(CN3CCC(n4c(=O)[nH]c5ccccc54)CC3)cc2)c(-c2ccccc2)c1,3140

# Molecular target: RAC-beta serine/threonine-protein kinase (Homo sapiens) (UniProt P31751)
# Test: Inhibition of Akt2 in human C33a cells
# Format: cell-based
# Details: not given
row,Activity [nM],Compound
1,3960,Nc1nnc(-c2cnc(-c3ccc(CN4CCC(n5c(=O)[nH]c6ncccc65)CC4)cc3)c(-c3ccccc3)c2)s1
2,1060,Nc1ncnc2c1cnn2C1CCN(Cc2ccc(-c3ncc(-c4ncon4)cc3-c3ccccc3)cc2)CC1
3,1350,Nc1nnc(-c2cnc(-c3ccc(CN4CCC(n5cc(-c6ccccn6)cn5)CC4)cc3)c(-c3ccccc3)c2)s1
4,3240,Nc1ncnc2c1cnn2C1CCN(Cc2ccc(-c3ncc(-c4nccs4)cc3-c3ccccc3)cc2)CC1
5,8110,Nc1ncnc2c1cnn2C1CCN(Cc2ccc(-c3ncc(-c4ccccn4)cc3-c3ccccc3)cc2)CC1
6,3460,Nc1ncnc2c1cnn2C1CCN(Cc2ccc(-c3ncc(-c4ncccn4)cc3-c3ccccc3)cc2)CC1
7,> 50000,Nc1ncnc2c1ncn2C1CCN(Cc2ccc(-c3ncc(-c4nnn[nH]4)cc3-c3ccccc3)cc2)CC1
8,153,Nc1nnc(-c2cnc(-c3ccc(CN4CCC(c5cc(-c6ccncc6)[nH]n5)CC4)cc3)c(-c3ccccc3)c2)s1
9,666,Nc1ncnc2c1cnn2C1CCN(Cc2ccc(-c3ncc(-c4nc[nH]n4)cc3-c3ccccc3)cc2)CC1
10,2030,Nc1nnc(-c2cnc(-c3ccc(CN4CCC(n5cc(-c6cnccn6)cn5)CC4)cc3)c(-c3ccccc3)c2)s1
11,330,Nc1nnc(-c2cnc(-c3ccc(CN4CCC(c5n[nH]c(-c6ccccn6)n5)CC4)cc3)c(-c3ccccc3)c2)s1
12,416,Nc1nnc(-c2cnc(-c3ccc(CN4CCC(n5ncc6c(N)ncnc65)CC4)cc3)c(-c3ccccc3)c2)s1
13,472,Nc1nnc(-c2cnc(-c3ccc(CNCCC(=O)c4ccccc4N)cc3)c(-c3ccccc3)c2)s1
14,300,Nc1nnc(-c2cnc(-c3ccc(CN4CCC(c5cc(-c6ccccn6)[nH]n5)CC4)cc3)c(-c3ccccc3)c2)s1

row,Compound,Activity [nM]
1,O=c1[nH]c2ccccc2n1C1CCN(Cc2ccc(-c3ncc(-c4nnn[nH]4)cc3-c3ccccc3)cc2)CC1,> 50000
2,N#Cc1cnc(-c2ccc(CN3CCC(n4c(=O)[nH]c5ccccc54)CC3)cc2)c(-c2ccccc2)c1,> 50000
